pIC50: −log10 of the molar value.
What was measured:
[1] = tested on: B16 melanoma; assay: In vivo antitumour activity against B16 melanoma grafted subcutaneously in mice, oral administration; settings: for T − C in days 750 mg: tumours reaching 750 mg
Excerpt: This activity of the compounds of the invention on […] tumours was studied on the B16 melanoma. […]
A product is considered to be active if log10 cell kill is greater than or equal to 0.7. A product is considered to be very active if log10 cell kill is greater than 2.8.
The animals bearing the tumours are randomized before being subjected to the various treatments and controls. In the case of treatment of tumours of the present invention, the treatment was started at an early stage, 3 to 4 days after implantation. […]
The tumours are measured two or three times a week until the tumour reaches approximately 2 g or until the death of the animal if the latter occurs before the tumour reaches 2 g. The animals are autopsied at the time of sacrifice.
The antitumour activity is determined according to the various parameters recorded.

[2] = molecular target: VEGFR3 (Homo sapiens, UniProt P35916); assay: VEGFR3 kinase inhibition (Table 1); type: biochemical; settings: read-out: VEGFR3, concentration that inhibits 50% of the kinase activity
Sequence of VEGFR3 (P35916 25-1363, species assumed): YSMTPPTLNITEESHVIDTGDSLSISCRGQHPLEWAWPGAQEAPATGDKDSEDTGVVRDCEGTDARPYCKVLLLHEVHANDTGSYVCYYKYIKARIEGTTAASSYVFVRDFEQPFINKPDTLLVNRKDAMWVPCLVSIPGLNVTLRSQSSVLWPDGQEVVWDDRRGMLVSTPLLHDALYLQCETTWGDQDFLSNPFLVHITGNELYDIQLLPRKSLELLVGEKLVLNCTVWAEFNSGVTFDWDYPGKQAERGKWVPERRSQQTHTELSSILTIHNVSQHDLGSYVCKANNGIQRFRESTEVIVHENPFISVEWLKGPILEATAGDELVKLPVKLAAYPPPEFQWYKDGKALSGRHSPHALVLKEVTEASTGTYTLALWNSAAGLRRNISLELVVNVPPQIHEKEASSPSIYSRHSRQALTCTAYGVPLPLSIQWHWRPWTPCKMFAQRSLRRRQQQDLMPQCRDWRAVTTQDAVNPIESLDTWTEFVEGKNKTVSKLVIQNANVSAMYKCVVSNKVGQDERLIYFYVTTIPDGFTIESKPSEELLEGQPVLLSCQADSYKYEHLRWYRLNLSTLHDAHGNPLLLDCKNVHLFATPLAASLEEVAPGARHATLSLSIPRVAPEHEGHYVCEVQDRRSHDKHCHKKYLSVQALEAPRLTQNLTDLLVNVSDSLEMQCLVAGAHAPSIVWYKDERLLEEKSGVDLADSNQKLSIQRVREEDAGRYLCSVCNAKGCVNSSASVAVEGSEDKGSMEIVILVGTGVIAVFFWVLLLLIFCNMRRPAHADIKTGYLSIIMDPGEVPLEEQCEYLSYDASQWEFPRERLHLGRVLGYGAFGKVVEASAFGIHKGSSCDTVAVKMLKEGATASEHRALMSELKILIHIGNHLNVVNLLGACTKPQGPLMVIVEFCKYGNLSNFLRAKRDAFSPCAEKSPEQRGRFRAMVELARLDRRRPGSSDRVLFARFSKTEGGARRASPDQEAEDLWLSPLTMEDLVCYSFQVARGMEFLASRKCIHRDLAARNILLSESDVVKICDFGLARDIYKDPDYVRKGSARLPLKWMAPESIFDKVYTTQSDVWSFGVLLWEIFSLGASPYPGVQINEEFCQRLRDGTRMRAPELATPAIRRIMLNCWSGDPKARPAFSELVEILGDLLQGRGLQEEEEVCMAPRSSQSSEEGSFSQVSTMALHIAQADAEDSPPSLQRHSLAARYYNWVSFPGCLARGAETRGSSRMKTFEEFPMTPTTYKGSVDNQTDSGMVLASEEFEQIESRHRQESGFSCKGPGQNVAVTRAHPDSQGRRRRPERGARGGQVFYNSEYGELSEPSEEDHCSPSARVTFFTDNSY

[3] = molecular target: FGFR1 (Homo sapiens, UniProt P11362); assay: FGFR kinase phosphorylation activity by radioactive labeling; type: biochemical; settings: read-out: FGFR1, concentration that inhibits 50% of the kinase activity
Sequence of FGFR1 (P11362 22-822, species assumed): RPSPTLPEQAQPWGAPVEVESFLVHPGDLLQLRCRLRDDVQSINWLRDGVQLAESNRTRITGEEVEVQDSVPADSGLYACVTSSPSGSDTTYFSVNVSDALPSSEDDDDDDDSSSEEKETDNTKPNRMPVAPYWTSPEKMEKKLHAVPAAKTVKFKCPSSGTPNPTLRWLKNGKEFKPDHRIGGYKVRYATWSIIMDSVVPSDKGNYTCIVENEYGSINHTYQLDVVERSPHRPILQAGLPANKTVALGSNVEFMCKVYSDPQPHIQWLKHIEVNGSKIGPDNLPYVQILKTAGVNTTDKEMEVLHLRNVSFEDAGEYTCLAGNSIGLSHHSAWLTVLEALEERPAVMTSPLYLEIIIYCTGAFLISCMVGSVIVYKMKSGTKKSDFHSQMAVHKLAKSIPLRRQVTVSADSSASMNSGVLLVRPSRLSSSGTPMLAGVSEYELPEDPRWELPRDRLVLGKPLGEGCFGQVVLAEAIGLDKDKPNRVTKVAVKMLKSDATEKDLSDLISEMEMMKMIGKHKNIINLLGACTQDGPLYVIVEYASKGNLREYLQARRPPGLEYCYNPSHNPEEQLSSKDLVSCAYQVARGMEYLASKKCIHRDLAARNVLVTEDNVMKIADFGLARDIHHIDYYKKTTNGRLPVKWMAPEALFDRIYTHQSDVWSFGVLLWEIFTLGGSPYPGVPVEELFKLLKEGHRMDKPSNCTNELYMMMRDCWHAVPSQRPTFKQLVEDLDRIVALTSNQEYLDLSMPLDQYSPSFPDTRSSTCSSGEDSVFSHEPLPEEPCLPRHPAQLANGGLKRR
Method: 5. Screening of Molecules by Measuring, by Radioactive Labeling, the FGFR Kinase Phosphorylation Activity in the Presence of PLCγ Substrate
The test is carried out in a similar manner to that carried out with the FLT1 enzyme by using, instead of 13 nM of Flt1, 27 nM of FGFR enzyme and mixed in the 96-well plates are 18 μl of GST-FGFR enzyme at 1.1 mg/ml (for a purity of 100%): (batch JCE3666).

[4] = PO 62 mg/kg/adm, days 4-14 (2x/d)
[5] = PO 99 mg/kg/adm, days 4-14 (2x/d)
[6] = PO 160.0 mg/kg/adm, days 4-14 (2x/d)
[7] = PO 61.5 mg/kg/adm, day 3-10 (2x/d)
[8] = PO 99.2 mg/kg/adm, day 3-10 (2x/d)

Cl.NC(=O)c1n[nH]cc1NCc1cc(F)cc(NC(=O)Nc2ccc(C(F)(F)F)cc2Cl)c1 [Example 1, 4-{3-[3-(2-Chloro-4-trifluoromethylphenyl)ureido]-5-fluorobenzylamino}-1H-pyrazole-3-carboxamide hydrochloride]
Comments ([1]; PO 44 mg/kg/adm, day 4-14): Inactive
Death due to the product (day of death) ([1]; PO 44 mg/kg/adm, day 4-14, total 481 mg/kg, BCM-1948): 0/5
Average weight of the tumour in mg on day 13 ([1]; PO 44 mg/kg/adm, day 4-14): 686 mg
T/C in % day 13 ([1]; PO 44 mg/kg/adm, day 4-14): 51%
% BWC (day of low point) ([1]; PO 44 mg/kg/adm, day 4-14, low point day 15): +10.6 (15) %
Comments [1, 4]: Active
Total log cell kill [1, 4]: 2.3
Death due to the product (day of death) ([1]; PO 62 mg/kg/adm, days 4-14 (2x/d), total 1232 mg/kg, BCM-1948): 0/5
Average weight of the tumour in mg on day 13 [1, 4]: 128 mg
T/C in % day 13 [1, 4]: 10%
% BWC (day of low point) ([1]; PO 62 mg/kg/adm, days 4-14 (2x/d), low point day 5): +1.8 (5) %
T − C in days 750 mg [1, 4]: 6.2 days
Comments [1, 5]: Active
Total log cell kill [1, 5]: 2.3
Death due to the product (day of death) ([1]; PO 99 mg/kg/adm, days 4-14 (2x/d), total 1966 mg/kg, BCM-1948): 0/5
Average weight of the tumour in mg on day 13 [1, 5]: 72 mg
T/C in % day 13 [1, 5]: 5%
% BWC (day of low point) ([1]; PO 99 mg/kg/adm, days 4-14 (2x/d), low point day 5): −1.0 (5) %
T − C in days 750 mg [1, 5]: 6.2 days
Total log cell kill [1, 6]: 2.6
Death due to the product (day of death) ([1]; PO 160.0 mg/kg/adm, days 4-14 (2x/d), total 3178 mg/kg, BCM-1948): 0/5
Comments ([1]; PO 160.0 mg/kg/adm, days 4-14 (2x/d), HDT = highest dose tested): HDT active
Average weight of the tumour in mg on day 13 [1, 6]: 23 mg
T/C in % day 13 [1, 6]: 2%
% BWC (day of low point) ([1]; PO 160.0 mg/kg/adm, days 4-14 (2x/d), low point day 6): −2.3 (6) %
T − C in days 750 mg [1, 6]: 6.8 days
pIC50 [2]: 8.52
pIC50 [3]: 7.27

Cl.NC(=O)c1n[nH]cc1NCc1cc(F)cc(NC(=O)Nc2ccc(C(F)(F)F)cc2F)c1 [Example 2, 4-{3-[3-(2-Fluoro-4-trifluoromethylphenyl)ureido]-5-fluorobenzylamino}-1H-pyrazole-3-carboxamide hydrochloride]
Comments ([1]; PO 44.0 mg/kg/adm, day 3-10): Active
Total log cell kill ([1]; PO 44.0 mg/kg/adm, day 3-10): 1.0
Death due to the product (day of death) ([1]; PO 44.0 mg/kg/adm, day 3-10, total 352.0 mg/kg, BCM-1979): 0/6
Average weight of the tumour in mg on day 11 ([1]; PO 44.0 mg/kg/adm, day 3-10): 201 mg
T/C in % day 11 ([1]; PO 44.0 mg/kg/adm, day 3-10): 27%
% BWC (day of low point) ([1]; PO 44.0 mg/kg/adm, day 3-10, low point day 11): +6.6 (11) %
T − C in days 750 mg ([1]; PO 44.0 mg/kg/adm, day 3-10): 3.0 days
Comments [1, 7]: Active
Total log cell kill [1, 7]: 1.7
Death due to the product (day of death) ([1]; PO 61.5 mg/kg/adm, day 3-10 (2x/d), total 984 mg/kg, BCM-1979): 0/6
Average weight of the tumour in mg on day 11 [1, 7]: 46 mg
T/C in % day 11 [1, 7]: 6%
% BWC (day of low point) ([1]; PO 61.5 mg/kg/adm, day 3-10 (2x/d), low point day 11): +3.9 (11) %
T − C in days 750 mg [1, 7]: 5.0 days
Total log cell kill [1, 8]: 1.8
Death due to the product (day of death) ([1]; PO 99.2 mg/kg/adm, day 3-10 (2x/d), total 1587.2 mg/kg, BCM-1979): 0/6
Comments ([1]; PO 99.2 mg/kg/adm, day 3-10 (2x/d), HNTD = highest nontoxic dose): HNTD active
Average weight of the tumour in mg on day 11 [1, 8]: 0 mg
T/C in % day 11 [1, 8]: 0%
% BWC (day of low point) ([1]; PO 99.2 mg/kg/adm, day 3-10 (2x/d), low point day 11): −8.1 (11) %
T − C in days 750 mg [1, 8]: 5.4 days
Comments ([1]; PO 160.0 mg/kg/adm, day 3-10 (2x/d)): Toxic
Death due to the product (day of death) ([1]; PO 160.0 mg/kg/adm, day 3-10 (2x/d), total 2560.0 mg/kg, BCM-1979, days of death 10, 2d11, 13, 2d14): 6/6
% BWC (day of low point) ([1]; PO 160.0 mg/kg/adm, day 3-10 (2x/d), low point day 13): −26.5 (13) %
pIC50 [3]: 7.04
